Where two headings read alike, the source gives them in different places.
Target: BTK (Homo sapiens, UniProt Q06187)
Assay: biochemical
[1] = read-out: BTK inhibition (%), 0.75 uM BTK, […] probe 3l, 15 min preincubation

Sequence of BTK (Q06187 402-655 limits assumed): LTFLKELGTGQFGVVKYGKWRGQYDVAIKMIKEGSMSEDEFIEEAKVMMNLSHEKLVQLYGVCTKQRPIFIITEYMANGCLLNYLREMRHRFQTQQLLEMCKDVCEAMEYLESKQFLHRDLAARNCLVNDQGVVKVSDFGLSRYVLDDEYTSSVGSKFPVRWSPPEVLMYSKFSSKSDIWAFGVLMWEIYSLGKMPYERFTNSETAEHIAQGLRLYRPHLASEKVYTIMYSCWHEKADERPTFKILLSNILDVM

SMILES | inhibition at 10 µM [1] [%] | inhibition at 10 µM (read-out: BTK inhibition (%)) [%]
CCCc1nc2c(C)cc(-c3nc4ccccc4n3C)cc2n1Cc1ccc(-c2ccccc2C(=O)O)cc1 [PCM-0086294] | -10.9 | –
C[C@@H](O)[C@H]1C(=O)N2C(C(=O)OCOC(=O)C(C)(C)C)=C(SC3CN(C4=NCCS4)C3)[C@H](C)[C@H]12 [PCM-0214665] | 4.7 | –
C[C@@H]1O[C@@H](OC[C@H]2O[C@@H](Oc3c(-c4ccc(O)c(O)c4)oc4cc(O)cc(O)c4c3=O)[C@H](O)[C@@H](O)[C@@H]2O)[C@H](O)[C@H](O)[C@H]1O [PCM-0087529] | -2.1 | –
COc1ccc2c(c1)c(CC(=O)O)c(C)n2C(=O)c1ccc(Cl)cc1 [PCM-0216635] | 10.8 | –
O=C(O)C1=CO[C@@H](O[C@@H]2O[C@H](CO)[C@@H](O)[C@H](O)[C@H]2O)[C@@H]2C(CO)=CC[C@H]12 [PCM-0086855] | -2.8 | –
COc1ccc(C(=O)CC(=O)c2ccc(C(C)(C)C)cc2)cc1 [PCM-0090378] | -3.9 | –
C=CC[C@@H]1/C=C(\C)C[C@H](C)C[C@H](OC)[C@H]2O[C@@](O)(C(=O)C(=O)N3CCCC[C@H]3C(=O)O[C@H](/C(C)=C/[C@@H]3CC[C@@H](O)[C@H](OC)C3)[C@H](C)[C@@H](O)CC1=O)[C@H](C)C[C@@H]2OC [PCM-0214806] | -2.8 | –
O=C(O)Cc1ccc(O)cc1 [PCM-0215121] | 25.7 | –
COc1ccc(-c2nc3ccc(C4=NNC(=O)CC4C)cc3[nH]2)cc1 (stereo not shown) [PCM-0095109] | -21.8 | –
CCCCCCCC(=O)N[C@H](CN1CCCC1)[C@H](O)c1ccc2c(c1)OCCO2 [PCM-0215629] | -9.3 | –
CN[C@H]1C(=O)N[C@@H]2Cc3ccc(cc3)Oc3cc4cc(c3O[C@@H]3O[C@H](C(=O)O)[C@@H](O)[C@H](O)[C@H]3NC(=O)CCCCCCCCC(C)C)Oc3ccc(cc3Cl)[C@@H](O)[C@@H]3NC(=O)[C@H](NC(=O)[C@@H]4NC(=O)[C@@H](NC2=O)c2cc(cc(O)c2Cl)Oc2cc1ccc2O)c1ccc(O)c(c1)-c1c(O[C@H]2O[C@H](CO)[C@@H](O)[C@H](O)[C@@H]2O)cc(O)cc1[C@@H](C(=O)NCCCN(C)C)NC3=O [PCM-0215113] | 73.2 | –
O=c1cc(-c2ccc(O)cc2)oc2cc(O)c(O)c(O)c12 [PCM-0216408] | 70.3 | –
Cn1cc(-c2cc(Oc3cc(F)c(NC(=O)C4(C(=O)Nc5ccccc5)CC4)cc3F)ccn2)cn1 [PCM-0216116] | 88.8 | –
O=c1cc(-c2ccc(O[C@@H]3O[C@H](CO)[C@@H](O)[C@H](O)[C@H]3O)cc2)oc2c([C@@H]3O[C@H](CO)[C@@H](O)[C@H](O)[C@H]3O)c(O)cc(O)c12 [PCM-0216358] | -3.9 | –
CCCC[S+]([O-])c1sc2nc(-c3cccs3)cc(-c3ccccc3)c2c1N (stereo not shown) [PCM-0215569] | 0.8 | –
COc1ccc(C[C@@H]2c3cc(Oc4cc(C[C@@H]5c6cc(O)c(OC)cc6CCN5C)ccc4O)c(OC)cc3CCN2C)cc1 [PCM-0216496] | 16.2 | –
C[C@@H]1COCCN1c1cc(C2(S(C)(=O)=O)CC2)nc(-c2cccc3[nH]ccc23)n1 [PCM-0095779] | -7.6 | –
O=C1NC(=O)/C(=C/c2ccc3nccc(-c4ccncc4)c3c2)S1 [PCM-0094973] | 14.5 | –
COc1ccc2cc1Oc1ccc(cc1)C[C@H]1c3cc(c(OC)cc3CCN1C)Oc1c(O)c(OC)cc3c1[C@H](C2)N(C)CC3 [PCM-0214877] | 27.2 | –
COc1cc(N2CCC(N3CCN(C)CC3)CC2)ccc1Nc1ncc(Cl)c(Nc2ccccc2S(=O)(=O)C(C)C)n1 [PCM-0094890] | 88.5 | –
CC(C)=CCC[C@](C)(O[C@@H]1O[C@H](CO)[C@@H](O)[C@H](O)[C@H]1O)[C@H]1CC[C@]2(C)[C@@H]1[C@H](O)C[C@@H]1[C@@]3(C)CC[C@H](O)C(C)(C)[C@@H]3[C@@H](O[C@@H]3O[C@H](CO)[C@@H](O)[C@H](O)[C@H]3O[C@@H]3OC[C@@H](O)[C@H](O)[C@H]3O)C[C@]12C [PCM-0215161] | 5.5 | –
Cc1cccc(Nc2nc(N[C@@H]3CCCC[C@@H]3N)ncc2C(N)=O)c1 [PCM-0215814] | 82.8 | –

SMILES | inhibition at 10 µM [1] [%] | inhibition at 10 µM (read-out: BTK inhibition (%)) [%]
COc1ccc2c(c1)=C(CC(=O)N1CCOCC1)C(C)(C(=O)c1ccc(Cl)cc1)N=2 (stereo not shown) [PCM-0095476] | -2.3 | –
OC[C@H]1O[C@H](Oc2ccc(O)cc2)[C@H](O)[C@@H](O)[C@@H]1O [PCM-0215968] | 4.6 | –
CCC(CC)n1ccc2c(C(=O)NCc3c(C)cc(C)[nH]c3=O)cc(C#N)cc21 [PCM-0215402] | 1.5 | –
Cc1noc(C)c1-c1ccc(-c2cc(C(N)=O)c(NC(N)=O)s2)c(O[C@H]2CCNC2)c1 [PCM-0215541] | 74.1 | –
CC[C@H](C)C(=O)O[C@H]1C[C@H](O)C=C2C=C[C@H](C)[C@H](CC[C@@H](O)C[C@@H](O)CC(=O)O)[C@H]21 [PCM-0214717] | -3.1 | –
CC(OC(=O)OC1CCCCC1)OC(=O)C1=C(CSc2nnnn2CCN(C)C)CS[C@@H]2[C@H](NC(=O)Cc3csc(N)n3)C(=O)N12 (stereo partly shown) [PCM-0216590] | 4.6 | –
NCc1ccc(S(N)(=O)=O)cc1 [PCM-0085773] | -28.8 | –
CC(=O)OCOC(=O)CN(CC(=O)OCOC(C)=O)c1ccccc1OCCOc1ccccc1N(CC(=O)OCOC(C)=O)CC(=O)OCOC(C)=O [PCM-0215314] | -27.8 | –
Cc1c(Cl)cccc1Nc1ccccc1C(=O)O [PCM-0005612] | -6.2 | –
Cc1c(C(=O)C=Cc2ccccc2)[n+](=O)c2ccccc2n1[O-] [PCM-0216007] | -6.9 | –
CC(C)NC[C@@H](C(=O)N1CCN(c2ncnc3c2[C@H](C)C[C@H]3O)CC1)c1ccc(Cl)cc1 [PCM-0095420] | -4.1 | –
C=C(Cc1ccccc1Cl)C(=O)OCC [PCM-0215835] | -4.1 | –
CC(C)n1nc(-c2ccc(NC(=O)Nc3cc(C(F)(F)F)ccc3F)cc2)c2c(N)ncnc21 [PCM-0215828] | 106 | –
OCCOCCN1CCN(C2=Nc3ccccc3Sc3ccccc32)CC1 [PCM-0086113] | -4.7 | –
CCCCC(=O)O[C@]1(C(=O)CO)[C@@H](C)C[C@H]2[C@@H]3CCC4=CC(=O)C=C[C@]4(C)[C@@]3(F)[C@@H](O)C[C@@]21C [PCM-0095140] | -15.9 | –
CCn1cc(C(=O)O)c(=O)c2ccc(C)nc21 [PCM-0012961] | 5.4 | –
CNC(=O)c1ccc(N2C(=S)N(c3cnc(C#N)c(C(F)(F)F)c3)C(=O)C23CCC3)cc1F [PCM-0095458] | -3.1 | –
COc1cccc2cc(-c3nc(C4CCC(C(=O)O)CC4)n4ncnc(N)c34)[nH]c12 (stereo not shown) [PCM-0095482] | 28.3 | –
Nc1ncn([C@H]2C[C@H](O)[C@@H](CO)O2)c(=O)n1 [PCM-0094900] | 11 | –
C[C@H](C[C@H](O)[C@@H](O)C(C)(C)O)C1=C2C[C@H](O)[C@H]3[C@@]4(C)CCC(=O)C(C)(C)[C@@H]4CC[C@]3(C)[C@@]2(C)CC1 [PCM-0216519] | -29.3 | –
O=C(c1ccc(OCCN2CCCCC2)cc1)c1c(-c2ccc(O)cc2)sc2cc(O)ccc12 [PCM-0065394] | 85.5 | –
O=C(O)CCc1c[nH]c2ccccc12 [PCM-0215055] | -34.2 | –

SMILES | inhibition at 10 µM [1] [%] | inhibition at 10 µM (read-out: BTK inhibition (%)) [%]
C=C1/C(=C\C=C2/CCC[C@]3(C)[C@@H]([C@H](C)CCCC(C)C)CC[C@@H]23)C[C@@H](O)C[C@@H]1O [PCM-0086012] | -3.1 | –
CCC[C@H](NC(=O)/C(C#N)=C/c1cccc(Br)n1)c1ccccc1 [PCM-0095282] | 24.8 | –
CCN(C(=O)c1c(O)c2c(Cl)cccc2n(C)c1=O)c1ccccc1 [PCM-0095368] | 11 | –
CO[C@@H]1[C@H](OC(=O)/C=C/C=C/C=C/C=C/C(=O)O)CC[C@]2(CO2)[C@H]1[C@@]1(C)O[C@@H]1CC=C(C)C [PCM-0215572] | 3.9 | –
C[C@H]1c2cccc(O)c2C(O)=C2C(=O)[C@]3(O)C(O)=C(C(N)=O)C(=O)[C@@H](N(C)C)[C@@H]3[C@@H](O)[C@@H]21 [PCM-0215985] | -21.6 | –
O=C(O)[C@H](O)c1ccccc1 [PCM-0216338] | -10 | –
COC(=O)CC1CC(c2ccc(O)cc2)=NO1 (stereo not shown) [PCM-0216118] | -16.6 | –
NCCCC[C@@H]1NC(=O)[C@@H](Cc2ccc(O)cc2)NC(=O)[C@H](CC(=O)O)NC(=O)CNC(=O)[C@H](CCCN=C(N)N)NC1=O [PCM-0215492] | -10 | –
CC1(C)S[C@@H]2[C@H](NC(=O)[C@H](NC(=O)N3CCN(S(C)(=O)=O)C3=O)c3ccccc3)C(=O)N2[C@H]1C(=O)O [PCM-0214758] | -19.5 | –
Clc1ccc(COC(Cn2ccnc2)c2ccc(Cl)cc2Cl)cc1 (stereo not shown) [PCM-0085902] | 7.8 | –
CC(C)(O)[C@@H]1CC[C@](C)([C@H]2[C@@H](O)C[C@@]3(C)[C@@H]4C[C@H](O[C@@H]5O[C@H](CO)[C@@H](O)[C@H](O)[C@H]5O)[C@H]5C(C)(C)[C@@H](O[C@@H]6OC[C@@H](O)[C@H](O)[C@H]6O)CC[C@@]56C[C@@]46CC[C@]23C)O1 [PCM-0215009] | 12.5 | –
C#C[C@]1(O)CC[C@H]2[C@@H]3CCC4=CC(=O)CC[C@@H]4[C@H]3CC[C@@]21C [PCM-0085792] | 3.1 | –
CCCCCCC(=O)O[C@H]1CC[C@H]2[C@@H]3CCC4=CC(=O)CC[C@]4(C)[C@H]3CC[C@]12C [PCM-0214913] | – | 6.2
COC(=O)/C=C/C(=O)OC [PCM-0090553] | 1.4 | –
O=C(O)CC1CC(c2ccccc2)=NO1 (stereo not shown) [PCM-0215292] | -2.1 | –
CCCNC(=O)[C@H]1O[C@@H]1C(=O)N[C@H](C(=O)N1CCC[C@H]1C(=O)OC)[C@@H](C)CC [PCM-0215739] | -31.7 | –
Cc1cc(-n2c(=O)[nH]c(=O)n(C)c2=O)ccc1Oc1ccc(SC(F)(F)F)cc1 [PCM-0086289] | -0.8 | –
CN(CCN1CCC(OC(=O)Nc2ccccc2-c2ccccc2)CC1)C(=O)c1ccc(CN2CCC(C(N)=O)CC2)cc1 [PCM-0216137] | -10 | –
COc1ccc(-c2nc(-c3cc(C(F)(F)F)cc(C(F)(F)F)c3)n(Cc3ccc(C(N)=O)cc3)c2-c2ccc(OC)cc2)cc1 [PCM-0215748] | 57.1 | –
CC1(C)OC(=O)C=C[C@]2(C)[C@H]3CC[C@@]4(C)[C@H](c5ccoc5)OC(=O)[C@H]5O[C@]54[C@]3(C)C(=O)C[C@@H]12 [PCM-0214973] | 11.7 | –
